The nature of this data set: Human HepG2 cell viability assay in 384 well format. The class given is toxicity, cell-based. Also on record: dose 125 nL, time 70.5 hour; concentration not given beside the values. To be noted: HepG2 cells, read-out: Inhibition.
On to `CN1CCCC(NC(=O)c2ccc(C(=O)c3cc[nH]c3)cc2)C1` (stereo not drawn), for which the cytotoxicity at 70.5 h is -16.9%.
As to `Cn1cc(C(=O)N2CCOc3ccccc32)ccc1=O`, the cytotoxicity at 70.5 h was -12.6%.
Under `Cc1ccc2c(c1)OCCN2C(=O)c1ccc(=O)n(C)c1` stands -5.4%; under `O=C(O)c1ccc(CCNC(=O)C2(O)Cc3ccccc3C2)cc1`, -12.7%.
On to `COC(=O)CCCNC(=O)COc1ccccc1C(F)(F)F`, for which the cytotoxicity at 70.5 h is -6.88%.
The result for `CC(C)N(CC1CCCN(CC(N)=O)C1)C(=O)OC(C)(C)C` (stereo not drawn) reads -12.8%; that for `CCC(CC)CNC(=O)N(C)C(C)c1ccccn1` (stereo not drawn), 12.3%.
`CC(C)c1noc(CCCC(=O)NCCOc2ccccc2)n1`: the cytotoxicity at 70.5 h is -8.16%.
The result for `CCN(CC)S(=O)(=O)CCNC(=O)N(C)C(C)c1ccccn1` (stereo not drawn) reads -8.05%; that for `Cc1nc(CNC(=O)c2oc3ccccc3c2CN(C)C)oc1C`, -8.24%; that for `Cc1nc(C2CCCN2C(=O)COCCOc2ccccc2)no1` (stereo not drawn), 8.74%.
Under `N#CCSCCCN1CCCC(C(=O)N2CCCCCC2)C1` (stereo not drawn) stands -4.07%.
Under `Cc1nc(C2CCCN2C(=O)CCCOc2cccc(F)c2)no1` (stereo not drawn) stands -4.99%.
As to `Cn1cc(CN2CCN(Cc3nccn3C)CC2)cn1`, the cytotoxicity at 70.5 h came out at 29.1%.
The result for `CC(C)c1csc(C2CCCN(C(=O)c3ccc(=O)n(C)n3)C2)n1` (stereo not drawn) reads 1.7%; that for `CCn1c(C)nnc1CN(C)C1CCN(Cc2cnc(C)cn2)C1` (stereo not drawn), -0.885%.
The result for `Cc1ccc(CNCc2nnc3n2CC(C(F)(F)F)CC3)cc1` (stereo not drawn) reads 1.57%; that for `COc1ccccc1CNC(=O)C1=NN(c2ccc(C)cc2)C(=O)CN1`, -4.66%; that for `Cc1noc(C2CCN(C(=O)c3c(C)noc3C)CC2)n1`, -10.7%.
Under `CC(O)CN1CCN(C(=O)c2cn(-c3ccccc3Cl)nn2)CC1` (stereo not drawn) stands -9.71%.
As for `CC(NC1(CNC(=O)CC(C)(C)C)CCOCC1)c1ccccc1` (stereo not drawn), the cytotoxicity at 70.5 h is -7.83%.
Under `CC(NC1(CNC(=O)Cn2cccn2)CCOCC1)c1ccccc1` (stereo not drawn) stands -6.45%; under `CCc1nc(CN2CCN(C(=O)COCc3ccccc3)CC2)no1`, -7.36%; under `Cc1cc(C)n(-c2cncc(NCCNC(=O)C(C)C)n2)n1`, -3.05%.
In the case of `Cc1ccc(NC(=O)NC(C)c2nc[nH]n2)s1` (stereo not drawn), the cytotoxicity at 70.5 h was -8.03%.
The result for `Cc1ccc(C2CSCCN2C(=O)C2=CCCC2)o1` (stereo not drawn) reads -6.86%; that for `COc1ccc(NC(=O)NC(C)c2nc[nH]n2)cc1` (stereo not drawn), -0.0192%.
The result for `O=c1ccc(-c2ccccc2F)nn1CCN1CCCS1(=O)=O` reads -2.96%.
For `Cc1cc(CN(C)Cc2cc3c(cc2OC(F)F)OCO3)on1`, the cytotoxicity at 70.5 h was -6.95%.
As to `CN(Cc1cc2c(cc1OC(F)F)OCO2)Cc1nccn1C`, the cytotoxicity at 70.5 h was -3.97%.
The result for `CCC(C)(NCC(=O)Nc1ccccc1)c1nc(C)cs1` (stereo not drawn) reads -4.87%; that for `Cc1nn(C)c(N(C)C)c1CNCc1cccnc1`, 16.2%; that for `Cn1cc(CNCCn2cccn2)c(-c2cccnc2)n1`, -4.81%.
The result for `CN(CC1CC1)C(=O)CN(Cc1cccc(O)c1)C1CCC(O)CC1` (stereo not drawn) reads -6.77%; that for `Cn1ncc2c(NCC3CCCN3c3cccnn3)ncnc21` (stereo not drawn), -3.62%; that for `O=C(CCc1ccccc1F)NS(=O)(=O)c1ccc2c(c1)OCCO2`, 21.2%.
Under `COCc1nc(C(=O)N2CCCC2c2ccncc2)cs1` (stereo not drawn) stands -1.03%.
For `COc1ccccc1OCCNCCn1cccn1`, the cytotoxicity at 70.5 h is -10.7%.
Under `Cc1cnn(CC(C)NCc2csc(-c3cccs3)n2)c1` (stereo not drawn) stands -22.3%.
For the molecule `Clc1ccc(OCCNCCn2cccn2)cc1`, the cytotoxicity at 70.5 h came to 22.1%.
Consider `COCc1nc(C(=O)N2CCCC2c2cccc(C)c2)cs1` (stereo not drawn), for which the cytotoxicity at 70.5 h was -8.14%.
The result for `Cc1ccc(-c2nc(CN3CCN(C(=O)C4CC4)CC3)cs2)o1` reads -5.72%; that for `Cc1ccc(-c2nc(CN3CCN(CC(=O)N(C)C)CC3)cs2)o1`, -5.37%; that for `CC(NC(=O)NCCCN(C)S(C)(=O)=O)c1ccc(F)cc1` (stereo not drawn), 16.8%.
The result for `CCOC(=O)C1CCN(Cc2csc(-c3ccc(C)o3)n2)CC1` reads -3.12%.
With `COc1c(CNCc2ccnc(N3CCCCC3)c2)c(C)nn1C`, the cytotoxicity at 70.5 h is 24.3%.
On to `Cc1ccc(C(=O)N2CCC(c3n[nH]c(C4CC4)n3)CC2)cc1F`, for which the cytotoxicity at 70.5 h is -7.97%.
`CN(C)CC(=O)N1CCN(C(=O)c2cccc3[nH]ncc23)CC1`: the cytotoxicity at 70.5 h is -8.09%.
On to `CCc1cccc(N2CCC(NC(=O)c3ccncc3)CC2)c1`, for which the cytotoxicity at 70.5 h is -4.49%.
Under `Cc1cccc(C(=O)N2CCN(C(=O)Cc3ccccn3)CC2)c1C` stands -2.92%; under `CCc1nc(CN2CCN(CC(O)c3ccccc3)CC2)no1` (stereo not drawn), 17.3%; under `CCc1noc(CN2CCN(CC(O)c3ccccc3)CC2)n1` (stereo not drawn), -3.73%.
The result for `CC(C)c1nc(CN2CCN(CC(O)c3ccccc3)CC2)no1` (stereo not drawn) reads -4.77%.
The result for `Cc1cnn(CC(C)NCc2csc(-c3ncccn3)n2)c1` (stereo not drawn) reads -2.17%; that for `CCc1cccc(N2CCC(NC(=O)CCNC(N)=O)CC2)c1`, -6.16%; that for `Cc1ccc(NC2CCN(C(=O)COc3cccc(F)c3)CC2)nn1`, 43.9%.
Turning to `Cc1nccn1C1CCCN(C(=O)c2ccnc(-n3ccnc3)c2)C1` (stereo not drawn), the cytotoxicity at 70.5 h was 10.7%.
As for `O=C(CCc1ccco1)N1CCCN(Cc2cscn2)CC1`, the cytotoxicity at 70.5 h is 11.4%.
The result for `COc1cccc(NC(=O)NCC(O)c2ccc(F)cc2F)c1` (stereo not drawn) reads -6.35%; that for `CC1CCCN(S(=O)(=O)NCc2ccccc2Cn2cncn2)C1` (stereo not drawn), -10.6%; that for `CNC(=O)N1CCC(NC(=O)c2cnn(C)c2)CC1`, -11.2%.
Regarding `COc1cc(/C=C/c2ncc(C(=O)O)s2)cc(Cl)c1OC`, the cytotoxicity at 70.5 h worked out at 18.2%.
The result for `CCOc1c(Cl)cc(/C=C/c2ncc(C(=O)O)s2)cc1OC` reads -18.4%; that for `CCc1noc(CN2CCC(C(=O)Nc3cnn(CC)c3)CC2)n1`, -10.6%; that for `CCCc1noc(CN2CCC(C(=O)Nc3cnn(CC)c3)CC2)n1`, -14.6%.
On to `O=C(c1ccnc(-n2ccnc2)c1)N1CCCC(n2ccnc2)C1` (stereo not drawn), for which the cytotoxicity at 70.5 h was -15%.
Under `Cc1nc(C)n(CC2CCCN2CC(=O)Nc2cc(C)on2)n1` (stereo not drawn) stands -8.96%.
The result for `Cc1nc(C)n(CC2CCCCN2CC(=O)Nc2cc(C)on2)n1` (stereo not drawn) reads -13.4%; that for `Cc1ccc(NC2CCN(C(=O)CCOCC(F)(F)F)CC2)nn1`, -2.83%; that for `Cc1cc(NC(=O)CCN2CCCCC2Cn2cncn2)no1` (stereo not drawn), -15.1%.
As to `Cc1cc(C)n(CC2CCCCN2CCC(=O)Nc2cc(C)on2)n1` (stereo not drawn), the cytotoxicity at 70.5 h is -10.3%.
Turning to `Cc1nn(C)c(Cl)c1C1CCCN1CC(=O)NCc1ccco1` (stereo not drawn), the cytotoxicity at 70.5 h is -8.19%.
Under `Cc1cnc(C(=O)N2CCCC(n3cncn3)C2)cn1` (stereo not drawn) stands -4.15%.
The result for `CC(=O)Nc1nc(C(=O)N2CCCC(n3cncn3)C2)cs1` (stereo not drawn) reads -11.2%; that for `Cn1cc(C(=O)CC2CCCN2C(=O)c2coc3ccccc23)cn1` (stereo not drawn), -12.8%; that for `Cn1cc(C(=O)CC2CCCN2C(=O)c2c[nH]c3ccccc23)cn1` (stereo not drawn), -13.9%.
Regarding `Cn1cc(C(=O)CC2CCCN2C(=O)c2ccncc2F)cn1` (stereo not drawn), the cytotoxicity at 70.5 h was -9.05%.
Under `Cc1nc(C)n(CC2CCCN(CCC(=O)Nc3cc(C)on3)C2)n1` (stereo not drawn) stands -9.8%; under `Cc1cnn(C2CCCN(C(=O)c3ccnc(-n4cncn4)c3)C2)c1` (stereo not drawn), -7.22%.
The result for `COCCOc1ccccc1C(=O)NCCN(C)C(C)C` reads 16.8%; that for `CC(C)N1CCN(C(=O)C(C)n2cncn2)CC1` (stereo not drawn), 5.67%; that for `CC(C(=O)N1CCN(c2ncccn2)CC1)n1cncn1` (stereo not drawn), -9.39%.
For the molecule `CC(C(=O)N1CCOCC1)n1cncn1` (stereo not drawn), the cytotoxicity at 70.5 h was -4.26%.
Under `Cc1ccc(-c2cnn(CC(=O)NC(C)C)c2)cc1` stands -3.29%; under `COc1cc(CNCC2CNc3ccnn3C2)ccn1` (stereo not drawn), -3.41%.
The result for `c1cc(CNCC2CNc3ccnn3C2)cc(OC2CCCCC2)n1` (stereo not drawn) reads -7.62%; that for `Cc1cnn(CCC(=O)N2CCN(c3ccc(C#N)cn3)CC2)c1`, -3.08%.
On to `Cc1cc(C2CCCN2C(=O)NCc2c(C)cc(C)[nH]c2=O)on1` (stereo not drawn), for which the cytotoxicity at 70.5 h is -7.29%.
The result for `Cc1cc(C)c(CNC(=O)N2CCCC2c2cc(C)on2)c(=O)[nH]1` (stereo not drawn) reads -7.12%.
Under `N#Cc1cccnc1N1CCCN(C(=O)CCn2cncn2)CC1` stands -4.22%.
The result for `CCN(CCNC(=O)c1cccc(C)c1C)C1CC1` reads -4.1%.
As for `CC(C)Oc1ccccc1NC(=O)N1CCC(n2cncn2)CC1`, the cytotoxicity at 70.5 h was -3.08%.
With `O=C1NCC(C(=O)Nc2ncc(Cc3ccc(F)cc3F)s2)N1` (stereo not drawn), the cytotoxicity at 70.5 h is -3.7%.
The result for `Cc1nccn1C1CCCN(C(=O)CCCNc2ncccn2)C1` (stereo not drawn) reads -6.43%; that for `CC1CN(C(=O)NCCNc2cnccn2)CCO1` (stereo not drawn), 25.6%.
Take `CC(C)(C)c1cnc(CN2CCCC2Cn2cccn2)o1` (stereo not drawn): the cytotoxicity at 70.5 h is -5.71%.
The result for `Cc1nc(C)n(CC2CCCCN2CC(=O)Nc2ccncc2)n1` (stereo not drawn) reads 16.8%; that for `N#Cc1ccc(OCCN2CCc3c(ncn3C3CC3)C2)cc1`, 8.16%; that for `CCc1nc(CN2CCCN(C(=O)C(C)COC)CC2)cs1` (stereo not drawn), -2.68%.
The result for `CCS(=O)(=O)c1ccccc1C(=O)NCc1ccnc(N(C)C)c1` reads -11.2%; that for `O=C(Cc1ccc2c(c1)OCCO2)NC1CCCC1`, 10.8%.
The result for `COc1ncccc1NC(=O)C1CCN(S(C)(=O)=O)CC1` reads -9.19%.
For `CN(C)c1cc(CNC(=O)c2ccc(F)cc2F)ccn1`, the cytotoxicity at 70.5 h was -10.5%.

The record behind these values is ChEMBL document CHEMBL3507680, “University of Dundee, Gates Library screen for HepG2 cell viability”.
